Format in all cases: cell-based
Assay [1] addresses T1, BRAF V600E (Homo sapiens, UniProt P15056, V600E).
T1 construct: endogenous C-terminal HiBiT fusion tag on BRAF V600E allele; endogenous in cells; host or cells: A375 clone 1F10 (CRISPR-Cas9 knock-in of the HiBiT tag; parental A375 from ATCC)
Description: BRAF HiBiT degradation assay, C-terminal HiBiT-tagged BRAF V600E A375 cells (clone 1F10), Nano-Glo HiBiT Lytic assay. The following applies: for Dmax: A-375. An outline of the steps:
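Endogenous BRAF V600E-HiBiT A375 (1F10), 10,000 cells/well, 24 h preculture; cpd 11-pt, 1 μM–0.01 nM half-log, n=2, 0.2% DMSO; HiBiT lytic detection 10 min RT; DC50 = fitted conc at Y=50; Obs. Dmax vs DMSO.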
(With HiBiT, luminescence reflects the tagged protein that the partner subunit can reach.)

Assay [2] addresses T2, BRAF G466V (Homo sapiens, UniProt P15056, G466V).
T2 construct: Horizon Discovery (HCT-116 BRAF−/− cells); host or cells: HCT-116 BRAF−/− cells, clone 8, lentiviral transduction
As to the kind of experiment: BRAF HiBiT degradation assay, C-terminal HiBiT-tagged BRAF G466V overexpressed in HCT-116 BRAF−/− cells (clone 8), Nano-Glo HiBiT Lytic assay. An outline of the steps:
(§1)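 Luminescence from the lytic HiBiT reagent, read after 10 min at room temperature, measured tagged BRAF remaining in lentivirally transduced HCT-116 BRAF−/− cells. Compounds were tested from 1 μM to 0.01 nM in half-log steps at 0.2% DMSO. DC50 values were fitted at 50% remaining.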

In assay [3] the target is T3, BRAF G469A (Homo sapiens, UniProt P15056, G469A).
T3 construct: Horizon Discovery (HCT-116 BRAF−/− cells); host or cells: HCT-116 BRAF−/− cells, clone 34, lentiviral transduction
As to the kind of experiment: BRAF HiBiT degradation assay, C-terminal HiBiT-tagged BRAF G469A overexpressed in HCT-116 BRAF−/− cells (clone 34), Nano-Glo HiBiT Lytic assay. The procedure, abridged: as §1

The target of assay [4] is T4, BRAF D594G (Homo sapiens, UniProt P15056, D594G).
T4 construct: Horizon Discovery (HCT-116 BRAF−/− cells); host or cells: HCT-116 BRAF−/− cells, clone 63, lentiviral transduction
Description: BRAF HiBiT degradation assay, C-terminal HiBiT-tagged BRAF D594G overexpressed in HCT-116 BRAF−/− cells (clone 63), Nano-Glo HiBiT Lytic assay. An outline of the steps: as §1

Setting [5] is: A375 (BRAF V600E), DC50 at 50%: fitted conc. at Y=50.
[6] abbreviates: A375 (BRAF V600E), percentage protein degraded at maximal compound effect relative to DMSO.
Setting [7] is: BRAF G466V, DC50 at 50%: fitted conc. at Y=50.
Setting [8] is: HCT-116, BRAF G466V, percentage protein degraded at maximal compound effect relative to DMSO.
Setting [9] is: Class 2, BRAF G469A, DC50 at 50%: fitted conc. at Y=50.
Setting [10] is: HCT-116, Class 2, BRAF G469A, percentage protein degraded at maximal compound effect relative to DMSO.
Where [11] appears, read: BRAF D594G, DC50 at 50%: fitted conc. at Y=50.
Where [12] appears, read: HCT-116, BRAF D594G, percentage protein degraded at maximal compound effect relative to DMSO.

The structures appear in SMILES notation.

T1 sequence (P15056 whole entry V600E, the tested form may be a part): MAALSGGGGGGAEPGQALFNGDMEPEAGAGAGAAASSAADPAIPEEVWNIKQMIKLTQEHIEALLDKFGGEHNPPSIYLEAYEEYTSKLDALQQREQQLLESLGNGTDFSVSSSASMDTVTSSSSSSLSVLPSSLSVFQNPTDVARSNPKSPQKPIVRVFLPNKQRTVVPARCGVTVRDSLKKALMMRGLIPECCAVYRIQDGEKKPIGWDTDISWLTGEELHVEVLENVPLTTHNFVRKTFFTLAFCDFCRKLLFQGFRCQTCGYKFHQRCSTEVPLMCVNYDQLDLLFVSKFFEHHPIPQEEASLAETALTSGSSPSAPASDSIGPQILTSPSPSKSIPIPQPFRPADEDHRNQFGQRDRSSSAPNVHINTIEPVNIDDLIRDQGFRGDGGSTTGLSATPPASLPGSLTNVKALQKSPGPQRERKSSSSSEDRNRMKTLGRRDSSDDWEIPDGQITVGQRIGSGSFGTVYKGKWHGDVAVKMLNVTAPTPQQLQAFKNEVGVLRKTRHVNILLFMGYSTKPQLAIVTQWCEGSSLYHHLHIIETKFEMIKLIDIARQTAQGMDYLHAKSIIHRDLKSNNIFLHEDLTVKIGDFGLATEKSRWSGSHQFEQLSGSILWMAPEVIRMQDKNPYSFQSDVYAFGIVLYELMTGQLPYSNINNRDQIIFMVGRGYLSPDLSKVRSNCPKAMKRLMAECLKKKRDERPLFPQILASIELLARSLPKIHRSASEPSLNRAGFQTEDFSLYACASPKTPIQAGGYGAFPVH
T3 sequence (P15056 whole entry G469A): as the sequence (P15056 whole entry V600E, the tested form may be a part) above, with G469A, E600V counted along it
T2 sequence (P15056 whole entry G466V): as the sequence (P15056 whole entry V600E, the tested form may be a part) above, with G466V, E600V counted along it
T4 sequence (P15056 whole entry D594G): as the sequence (P15056 whole entry V600E, the tested form may be a part) above, with D594G, E600V counted along it

As for `CCCS(=O)(=O)Nc1cccc(-c2cn(-c3ccc(C4CCN(CC5CCN(c6ccc(C7CCC(=O)NC7=O)cc6)CC5)CC4)cc3)nc2-c2ccncc2)c1F` (racemic) [Compound 25, Rac-N-{3-[1-(4-{1-[(1-{4-[(3R)-2,6-dioxopiperidin-3-yl]phenyl}piperidin-4-yl)methyl]piperidin-4-yl}phenyl)-3-(pyridin-4-yl)-1H-pyrazol-4-yl]-2-fluorophenyl}propane-1-sulfonamide], the 50% degradation concentration (DC50) (usually the concentration giving 50% degradation) in assay [1] (setting [5]) is 0.01 to 0.05 µM; in assay [2] (setting [7]), 0.01 to 0.05 µM; in assay [3] (setting [9]) it was above 0.5 µM; in assay [4] (setting [11]) it was above 0.5 µM. Also, the greatest degradation seen (Dmax) (as a rule, the largest share of the target that was removed) in assay [1] (setting [6]) was above 70%; in assay [2] (setting [8]) it was 30 to 70%; in assay [3] (setting [10]), below 30%; in assay [4] (setting [12]), 30 to 70%.

For `CCCS(=O)(=O)Nc1cccc(-c2nc(-c3ccc(C4CCN(C(=O)CC5CCN(c6ccc(C7CCC(=O)NC7=O)cn6)CC5)CC4)cc3)sc2-c2ccnc(N)n2)c1F` (racemic) [Compound 207, Rac-N-{3-[5-(2-aminopyrimidin-4-yl)-2-(4-{1-[2-(1-{5-[(3R)-2,6-dioxopiperidin-3-yl]pyridin-2-yl}piperidin-4-yl)acetyl]piperidin-4-yl}phenyl)-1,3-thiazol-4-yl]-2-fluorophenyl}propane-1-sulfonamide], the 50% degradation concentration (DC50) in assay [1] (setting [5]) is 0.01 to 0.05 µM; in assay [2] (setting [7]), above 0.5 µM; in assay [3] (setting [9]) it was above 0.5 µM; in assay [4] (setting [11]), above 0.5 µM. The maximal degradation (Dmax) is above 70% in assay [1] (setting [6]), 30 to 70% in assay [2] (setting [8]), 30 to 70% in assay [3] (setting [10]) and 30 to 70% in assay [4] (setting [12]).

Regarding `CCCS(=O)(=O)Nc1cccc(-c2nc(C3CCN(C(=O)C4CCN(C(=O)C5CCN(c6ccc(C7CCC(=O)NC7=O)cn6)CC5)CC4)CC3)sc2-c2ccncn2)c1F` (racemic) [Compound 220, Rac-N-[3-(2-{1-[1-(1-{5-[(3R)-2,6-dioxopiperidin-3-yl]pyridin-2-yl}piperidine-4-carbonyl)piperidine-4-carbonyl]piperidin-4-yl}-5-(pyrimidin-4-yl)-1,3-thiazol-4-yl)-2-fluorophenyl]propane-1-sulfonamide], the 50% degradation concentration (DC50) in assay [1] (setting [5]) is below 0.01 µM; in assay [2] (setting [7]), 0.01 to 0.05 µM; in assay [3] (setting [9]), above 0.5 µM; in assay [4] (setting [11]), below 0.01 µM. Besides, the Dmax was above 70% in assay [1] (setting [6]), 30 to 70% in assay [2] (setting [8]), 30 to 70% in assay [3] (setting [10]) and 30 to 70% in assay [4] (setting [12]).

`CCCS(=O)(=O)Nc1cccc(-c2nc(C3CCN(C(=O)C4CCN(CC5CCN(c6ccc(C7CCC(=O)NC7=O)cn6)CC5)CC4)CC3)sc2-c2ccnc(N)n2)c1F` (racemic) [Compound 261, Rac-N-{3-[5-(2-aminopyrimidin-4-yl)-2-(1-{1-[(1-{5-[(3R)-2,6-dioxopiperidin-3-yl]pyridin-2-yl}piperidin-4-yl)methyl]piperidine-4-carbonyl}piperidin-4-yl)-1,3-thiazol-4-yl]-2-fluorophenyl}propane-1-sulfonamide]: the 50% degradation concentration (DC50) is below 0.01 µM in assay [1] (A375 (BRAF V600E, Class 1), DC50 at 50% degradation); 0.05 to 0.5 µM in assay [2] (BRAF G466V (Class 3), HCT-116 BRAF−/− cells, DC50 at 50% degradation); above 0.5 µM in assay [3] (BRAF G469A (Class 2), HCT-116 BRAF−/− cells, DC50 at 50% degradation); above 0.5 µM in assay [4] (BRAF D594G (Class 3), HCT-116 BRAF−/− cells, DC50 at 50% degradation). The Dmax was above 70% in assay [1] (A375 (BRAF V600E, Class 1), observed Dmax, % protein degraded relative to DMSO control); 30 to 70% in assay [2] (BRAF G466V (Class 3), HCT-116 BRAF−/− cells, observed Dmax relative to DMSO control); 30 to 70% in assay [3] (BRAF G469A (Class 2), HCT-116 BRAF−/− cells, observed Dmax relative to DMSO control); 30 to 70% in assay [4] (BRAF D594G (Class 3), HCT-116 BRAF−/− cells, observed Dmax relative to DMSO control).

Regarding `CCCS(=O)(=O)Nc1cccc(-c2nc(C(C)(C)C)sc2-c2ccnc(Nc3ccc(C4CCN(C(=O)[C@@H]5CCN(c6ccc(C7CCC(=O)NC7=O)cn6)C5)CC4)cc3)n2)c1F` (mixture of isomers) [Compound 164, N-[3-(2-tert-butyl-5-{2-[(4-{1-[(3R)-1-{5-[(3RS)-2,6-dioxopiperidin-3-yl]pyridin-2-yl}pyrrolidine-3-carbonyl]piperidin-4-yl}phenyl)amino]pyrimidin-4-yl}-1,3-thiazol-4-yl)-2-fluorophenyl]propane-1-sulfonamide], the DC50 is below 0.01 µM in assay [1] (setting [5]), above 0.5 µM in assay [2] (setting [7]), above 0.5 µM in assay [3] (setting [9]) and above 0.5 µM in assay [4] (setting [11]). For the same molecule, the greatest degradation seen (Dmax) in assay [1] (setting [6]) was above 70%; in assay [2] (setting [8]) it was 30 to 70%; in assay [3] (setting [10]), below 30%; in assay [4] (setting [12]) it was 30 to 70%.

The values above are taken from patent publication US20260317324A1, “BIFUNCTIONAL COMPOUNDS FOR DEGRADING BRAF VIA UBIQUITIN PROTEOSOME PATHWAY” (Nurix Therapeutics, Inc., priority 2023, published 2026).
